Tests used:
[1] = cited from earlier work
[2] = Real-time measurement of CCl4 in combined exhaled breath of rats after a single intravenous injection (TAGA tandem mass spectrometer); assay type: in vivo, male Fischer 344 rat
Excerpt: Male, Fischer 344 rats, weighing 225-275 g, were purchased either with, or without, indwelling jugular vein cannulas from Charles River, Inc., Raleigh, N.C. Animals were housed singularly in solid-bottom cages with hardwood chips, and were acclimated on a 12-hr light/dark cycle prior to use. Rodent chow (NIH-07) and water were provided ad libitum throughout the acclimation period. Cannulas were maintained by periodic flushing with heparinized saline.
In three different experiments, either two or four animals were placed in nose-only restraint tubes (C. H. Technologies, Westwood, N.J.) with access slots that allow the cannulas to be exteriorized from the animal. Each animal restrainer was connected via a nose port to the rat manifold. The exhaled breath from the rat exited the nose port and was driven into a common mixing chamber by a continuous flow of supplied breathing air. Samples for analysis by the mass spectrometer were continually drawn from the contents of the mixing chamber. Rats placed in restraint tubes are connected to the manifold. The exhaled breath from each animal is passed into a common heated mixing chamber, where the mass spectrometer draws a sample via a drying tube.
Each animal received a single intravenous injection of CCl4 in isotonic saline, either through the Jugular vein cannula, or via the tail vein. In the first experiment, two animals were utilized, each receiving a dose of 0.6 mg/kg body weight (BW) (250 μl volume) through the jugular vein cannula. Cannulas were flushed with saline immediately following injection. The second and third experiments utilized 4 animals each, with each animal receiving a dose of 1.5 mg/kg BW (1 ml volume) through the tail vein. In all cases, the length of time of injection was approximately 1 minute. The combined exhaled breath from the exposed animals was measured continuously to determine the concentration of CCl4 exhaled. The resulting concentration data were adjusted to account for dilution by the flow of supplied breathing air and divided by the number of rats to allow expression as ng CCl4 /l air per rat.
The expired breath from the rats was monitored by interfacing the rats to a tandem mass spectrometer. The manifold was a modification of a human breath interface patented by Kenny and Kelly (1991) U.S. Pat. No. 5,042,501 herein incorporated by reference. This device can accommodate up to six rats connected by the nose-only restraint tubes mentioned above. Breathing air (1000 ml/min) is constantly supplied to the rats through the center tube (175 ml volume) of the manifold at a rate greater than the combined ventilation rate of the animals on the system, and can be adjusted for the number of rats being monitored. Re-breathing of the exhaled air was considered to be negligible. The exhaled breath from each rat flows into a common heated mixing chamber (300 ml volume) from which the mass spectrometer continuously draws its sample. The excess exhaled air is vented from the mixing chamber with negligible flow restriction via a large bore hole exit tube. Intensity data from the mass spectrometer was converted to concentration (ppb) through the use of external standards and a calibration curve for carbon tetrachloride. A new calibration curve was generated each day of experimentation.
During these experiments, the expired breath of the rats was monitored in real-time using a Sciex Trace Atmospheric Gas Analyzer (TAGA) 6000E tandem mass spectrometer (Sciex, Thornhill, Ontario, Canada) equipped with a low-pressure chemical ionization source (LPCI). The TAGA combines sampling and analysis into one rapid operation, while maintaining a very high level of sensitivity and selectivity (Dawson et al. 1982a; 1982b). The TAGA consists of a LPCI source and two mass filters in series, separated by a gas-collision region. Organic molecules in the sampled air stream are ionized directly at approximately 1 torr by the chemical reactions generated about a Townsend discharge electrode. […]

[3] = Paustenbach et al., 1988, cited from earlier work
[4] = 0.6 mg/kg BW, jugular vein cannula, two rats, FIG. 3a

ClC(Cl)(Cl)Cl [CCl4, carbon tetrachloride]
Partition coefficient Blood: Air ([1]; Gargas et al., 1986b): 4.52
Partition coefficient Liver: Blood ([1]; Gargas et al., 1986b): 3.14
Partition coefficient Slowly perfused: Blood ([1]; Gargas et al., 1986b): 2.0
Partition coefficient Richly perfused: Blood ([1]; Set equivalent to partition coefficient for liver: blood): 3.14
first pass elimination through the lung [2, 4]: extremely rapid
levels available for subsequent distribution into the entire blood volume [2, 4]: very low levels
fraction of CCl4 held up in the circulating blood supply ([2]; 1.5 mg/kg BW, tail vein, four rats, FIG. 3b, compared with jugular vein): larger fraction
elimination through the lung (exhalation profile) ([2]; 1.5 mg/kg BW, tail vein, four rats, FIG. 3b, repeat gave same pattern): initial sharp peak
time for which the decay of the CCl4 can be followed after the injection before returning to baseline ([2]; FIGS. 3a and 3b, single i.v. injection): 30 to 35 min
Tmax ([2]; rat, exhaled breath, iv, single i.v. injection, 0.6 mg/kg jugular vein or 1.5 mg/kg tail vein, consistent with calculated sample-introduction delay (28.5 seconds), read-out: peak concentration of CCl4 in exhaled breath occurred in (time from the end of the injection) (converted)): ~30 s
acetone in exhaled breath (biomarker of CCl4-induced lipid peroxidation) ([2]; single i.v. injection of CCl4): not detectable
Vmaxc (Metabolism) ([3]; body weight 250 g): 13.8 μg CCl4 /min per kg
Km (Metabolism) [3]: 0.25 µg/mL
